In US20240116918A1, “SUBSTITUTED TRICYCLIC COMPOUND AS PRMT5 INHIBITOR AND USE THEREOF” (NANJING SANHOME PHARMACEUTICAL CO., LTD., priority 2019, published 2024):

Test system: MDA-MB-468 cells
Experiment: In vitro cell activity, MDA-MB-468 cells, CCK-8
Type: cell-based
Details: Homo sapiens, MDA-MB-468, 168 h, read-out: IC50 MDA-MB-468 Cell, triple negative breast cancer cells, 7 days
Procedure: Test compounds: the compounds of the present invention prepared in the above example. Each compound was formulated into a 10 mM stock solution with DMSO, and finally diluted into 8 concentrations for detection, with the final concentrations being 33333.00 nM, 6666.60 nM, 1333.32 nM, 266.66 nM, 53.33 nM, 10.67 nM, 2.13 nM, and 0.43 nM for experiments in Z-138 cells.
After thawing, the cryovial was taken out, and sterilized with an alcohol cotton ball, after which the cap was unscrewed. The cell fluid was drawn and injected into a centrifuge tube. 1 mL of L-15 medium containing 10% FBS was added, and mixed uniformly. The tube was placed in a centrifuge, and centrifuged at 1000 rpm for 5 min. Afterwards, the supernatant was discarded, and complete medium was added. The mixture was pipetted repeatedly until the cells were completely dispersed and resuspended. The mixture was inoculated in a petri dish at an appropriate concentration, and cultured in a CO2-free incubator at 37° C., and 95% humidified air.
The medium (Leibovitz's L-15 Medium+10% FBS+1% penicillin-streptomycin) was transferred to a 15 mL centrifuge tube, and centrifuged at 1000 rpm for 5 min. The supernatant was removed. The cells were resuspended in complete medium, and inoculated in a petri dish at the desired density. The dish was placed in a CO2-free incubator at 37° C., and 95% humid air. The culture medium was changed every 2-3 days or the passage was carried out, depending on the cell growth.
After passage, MDA-MB-468 cells were resuspended in complete medium at the corresponding density, 2000 cells/well, and inoculated in a 96-well culture plate. The wells at the outer circumference were filled with 200 μL PBS to prevent the culture conditions of the inner plate wells from being too different from each other due to the faster evaporation of medium at the edge. The leftmost column of the 60 inner wells were blank wells, which were not added with cells, but filled with equal volume of PBS. The remaining 54 wells were subjected to cell plating with a multichannel pipette, to each well was added 100 μL. The plate was placed in a CO2-free incubator and cultured at 37° C. for 24 h. […]
The first column of PBS was used as a blank control well, and 100 μL of CCK-8 was added synchronously thereto. […] The optimal detection time was determined according to the shade of color developed by CCK-8 (the optimal OD value for the DMSO group was about 1.0). […] The microplate reader software was opened, the detection parameters were adjusted, and the absorbance at 450 nm (OD value) was detected. The cover of the culture plate was removed, and the culture plate was directly placed horizontally in the plate groove to start reading. After the reading was finished, the program was saved, and the data was exported. […]

| SMILES | IC50 [nM] |
| --- | --- |
| CC(=O)N1CCC(Nc2cc(C(=O)NC[C@H](O)CN3CCc4ccccc4C3)ncn2)CC1 [Compound A, (S)-6-((1-Acetylpiperidin-4-yl)amino)-N-(3-(3,4-dihydroisoquinolin-2(1H)-yl)-2-hydroxypropyl)pyrimidine-4-carboxamide] | 116 |
| CC(=O)N1CCC(Nc2ccc3c(c2)C(=O)N(C[C@H](O)CN2CCc4ccccc4C2)CC32CC2)CC1 [Compound B, (R)-7′-((1-Acetylpiperidin-4-yl)amino)-2′-(3-(3,4-dihydroisoquinolin-2(1H)-yl)-2-hydroxypropyl)-2′,3′-dihydro-1′H-spiro[cyclopropane-1,4′-isoquinolin]-1′-one, reference compound] | 41.3 |
| CC(=O)N1CCC(Nc2cc3c(cn2)C2(CC2)CN(C[C@H](O)CN2CCc4ccccc4C2)C3=O)CC1 [Example 1, (R)-7′-((1-acetylpiperidin-4-yl)amino)-2′-(3-(3,4-dihydroisoquinolin-2(1H)-yl)-2-hydroxypropyl)-2′,3′-dihydro-1′H-spiro[cyclopropane-1,4′-[2,6]naphthyridin]-1′-one] | 11.6 |
| CC(=O)N1CC2(CC(Nc3cc4c(cn3)C3(CC3)CN(C[C@H](O)CN3CCc5ccccc5C3)C4=O)C2)C1 [Example 2, (R)-7′-((2-acetyl-2-azaspiro[3.3]hept-6-yl)amino)-2′-(3-(3,4-dihydroisoquinolin-2(1H)-yl)-2-hydroxypropyl)-2′,3′-dihydro-1′H-spiro[cyclopropane-1,4′-[2,6]naphthyridin]-1-one] | 7.35 |
